Molecular target: T1, Fatty-acid amide hydrolase 1 [30-579] (Rattus norvegicus, UniProt P97612)
T1 construct: 30-579
T1 sequence (P97612 whole entry): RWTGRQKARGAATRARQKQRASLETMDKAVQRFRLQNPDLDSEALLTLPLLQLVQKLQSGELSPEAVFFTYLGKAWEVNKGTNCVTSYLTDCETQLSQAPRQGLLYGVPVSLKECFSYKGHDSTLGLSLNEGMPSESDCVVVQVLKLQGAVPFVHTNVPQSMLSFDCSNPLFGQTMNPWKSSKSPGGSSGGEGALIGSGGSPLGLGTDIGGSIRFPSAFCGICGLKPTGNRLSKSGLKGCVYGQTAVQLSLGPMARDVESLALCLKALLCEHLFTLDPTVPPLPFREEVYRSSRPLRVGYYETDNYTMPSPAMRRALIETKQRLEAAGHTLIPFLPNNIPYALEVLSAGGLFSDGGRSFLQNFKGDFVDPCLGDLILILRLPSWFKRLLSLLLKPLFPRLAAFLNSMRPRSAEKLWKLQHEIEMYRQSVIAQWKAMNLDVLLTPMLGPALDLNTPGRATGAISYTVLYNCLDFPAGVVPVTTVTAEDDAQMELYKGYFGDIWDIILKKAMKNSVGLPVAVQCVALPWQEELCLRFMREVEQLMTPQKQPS
Assay: FAAH Inhibition Assay
Conditions: pH 9; 37 °C
Protocol: The effect of the test compounds on the enzymatic hydrolysis of [3H]anandamide was evaluated by using rat brain homogenate preparations. [3H]Ethanolamine produced from [3H]AEA hydrolysis was used to calculate FAAH activity and was measured by scintillation counting of the aqueous phase after extraction of the incubation mixture. Data are expressed as the concentration exerting a half maximal inhibition (IC50).

| Structure (SMILES) | IC50 [µM] |
| --- | --- |
| CCCCCCCCN1C(=O)C(c2ccc(Br)cc2)(c2ccc(Br)cc2)NC1=S [5,5-bis(4-bromophenyl)-3-octyl-2-sulfanylideneimidazolidin-4-one] | 589 |
| CCCCCCN1C(=O)C(c2ccccc2)(c2ccccc2)NC1=S [3-hexyl-5,5-diphenyl-2-sulfanylideneimidazolidin-4-one] | 4.47 |
| O=C1N(c2ccccc2)C(=S)NC1(c1ccccc1)c1ccccc1 [3,5,5-triphenyl-2-sulfanylideneimidazolidin-4-one] | 29.5 |
| CCCCCCCCN1C(=O)C(c2ccccc2)(c2ccccc2)NC1=S [3-octyl-5,5-diphenyl-2-sulfanylideneimidazolidin-4-one] | 3.02 |
| CCCCCCN1C(=O)NC(c2ccccc2)(c2ccccc2)C1=O [3-hexyl-5,5-diphenylimidazolidine-2,4-dione] | 9.55 |
| C#CCCCCCCCCCNC(=O)Oc1cccc(-c2cccc(C(N)=O)c2)c1 [3-(3-carbamoylphenyl)phenyl N-(undec-10-yn-1-yl)carbamate] | 0.01 |
| O=C(CCCCCCc1ccccc1)c1nc2ncccc2o1 [7-phenyl-1-{pyrido[2,3-d][1,3]oxazol-2-yl}heptan-1-one] | 0.000316 |

From BindingDB's records for doi:10.1016/j.bmcl.2006.06.087 (Fundp, 2006)
